The source made the active and inactive calls. The calls are words filed in the database; no cut-off is given here.
What was measured:
[1] = Cytotoxicity against human Molt4/C8 cells; assay type: functional, cell-based; settings: MOLT-4
[2] = system: L1210; assay: Cytotoxicity against mouse L1210 cells; assay type: functional, cell-based
[3] = system: CCRF-CEM; assay: Cytotoxicity against human CEM cells; assay type: functional, cell-based
[4] = biological target: DNA topoisomerase 2-alpha (Homo sapiens) (UniProt P11388); assay: Inhibition of human DNA topoisomerase 2alpha-mediated relaxation of supercoiled pRYG DNA at 10 uM after 30 mins by […]
[5] = biological target: DNA topoisomerase 2-alpha (Homo sapiens) (UniProt P11388); assay: Inhibition of human DNA topoisomerase 2alpha-mediated relaxation of supercoiled pRYG DNA at 25 uM after 30 mins by […]
[6] = biological target: DNA topoisomerase 2-alpha (Homo sapiens) (UniProt P11388); assay: Inhibition of human DNA topoisomerase 2alpha-mediated relaxation of supercoiled pRYG DNA at 50 uM after 30 mins by […]
[7] = system: Mus musculus; assay: Neurotoxicity in mouse at 300 mg/kg, ip after 0.5 hrs; assay type: toxicity, organism-based; parameters: dose 300 mg/kg, route intraperitoneal; settings: in vivo
[8] = system: Mus musculus; assay: Neurotoxicity in mouse at 30 mg/kg, ip after 4 hrs; assay type: toxicity, organism-based; parameters: dose 30 mg/kg, route intraperitoneal; settings: in vivo
[9] = system: Mus musculus; assay: Neurotoxicity in mouse at 100 mg/kg, ip after 4 hrs; assay type: toxicity, organism-based; parameters: dose 100 mg/kg, route intraperitoneal; settings: in vivo
[10] = system: Mus musculus; assay: Neurotoxicity in mouse at 300 mg/kg, ip after 4 hrs; assay type: toxicity, organism-based; parameters: dose 300 mg/kg, route intraperitoneal; settings: in vivo
[11] = biological target: DNA topoisomerase 2-alpha (Homo sapiens) (UniProt P11388); assay: Inhibition of human DNA topoisomerase 2alpha-mediated relaxation of supercoiled pRYG DNA at 100 uM after 30 mins by agarose gel electrophoresis
[12] = system: Mus musculus; assay: Neurotoxicity in mouse at 100 mg/kg, ip after 0.5 hrs; assay type: toxicity, organism-based; parameters: dose 100 mg/kg, route intraperitoneal; settings: in vivo

DNA topoisomerase 2-alpha (Homo sapiens), sequence (P11388 whole entry): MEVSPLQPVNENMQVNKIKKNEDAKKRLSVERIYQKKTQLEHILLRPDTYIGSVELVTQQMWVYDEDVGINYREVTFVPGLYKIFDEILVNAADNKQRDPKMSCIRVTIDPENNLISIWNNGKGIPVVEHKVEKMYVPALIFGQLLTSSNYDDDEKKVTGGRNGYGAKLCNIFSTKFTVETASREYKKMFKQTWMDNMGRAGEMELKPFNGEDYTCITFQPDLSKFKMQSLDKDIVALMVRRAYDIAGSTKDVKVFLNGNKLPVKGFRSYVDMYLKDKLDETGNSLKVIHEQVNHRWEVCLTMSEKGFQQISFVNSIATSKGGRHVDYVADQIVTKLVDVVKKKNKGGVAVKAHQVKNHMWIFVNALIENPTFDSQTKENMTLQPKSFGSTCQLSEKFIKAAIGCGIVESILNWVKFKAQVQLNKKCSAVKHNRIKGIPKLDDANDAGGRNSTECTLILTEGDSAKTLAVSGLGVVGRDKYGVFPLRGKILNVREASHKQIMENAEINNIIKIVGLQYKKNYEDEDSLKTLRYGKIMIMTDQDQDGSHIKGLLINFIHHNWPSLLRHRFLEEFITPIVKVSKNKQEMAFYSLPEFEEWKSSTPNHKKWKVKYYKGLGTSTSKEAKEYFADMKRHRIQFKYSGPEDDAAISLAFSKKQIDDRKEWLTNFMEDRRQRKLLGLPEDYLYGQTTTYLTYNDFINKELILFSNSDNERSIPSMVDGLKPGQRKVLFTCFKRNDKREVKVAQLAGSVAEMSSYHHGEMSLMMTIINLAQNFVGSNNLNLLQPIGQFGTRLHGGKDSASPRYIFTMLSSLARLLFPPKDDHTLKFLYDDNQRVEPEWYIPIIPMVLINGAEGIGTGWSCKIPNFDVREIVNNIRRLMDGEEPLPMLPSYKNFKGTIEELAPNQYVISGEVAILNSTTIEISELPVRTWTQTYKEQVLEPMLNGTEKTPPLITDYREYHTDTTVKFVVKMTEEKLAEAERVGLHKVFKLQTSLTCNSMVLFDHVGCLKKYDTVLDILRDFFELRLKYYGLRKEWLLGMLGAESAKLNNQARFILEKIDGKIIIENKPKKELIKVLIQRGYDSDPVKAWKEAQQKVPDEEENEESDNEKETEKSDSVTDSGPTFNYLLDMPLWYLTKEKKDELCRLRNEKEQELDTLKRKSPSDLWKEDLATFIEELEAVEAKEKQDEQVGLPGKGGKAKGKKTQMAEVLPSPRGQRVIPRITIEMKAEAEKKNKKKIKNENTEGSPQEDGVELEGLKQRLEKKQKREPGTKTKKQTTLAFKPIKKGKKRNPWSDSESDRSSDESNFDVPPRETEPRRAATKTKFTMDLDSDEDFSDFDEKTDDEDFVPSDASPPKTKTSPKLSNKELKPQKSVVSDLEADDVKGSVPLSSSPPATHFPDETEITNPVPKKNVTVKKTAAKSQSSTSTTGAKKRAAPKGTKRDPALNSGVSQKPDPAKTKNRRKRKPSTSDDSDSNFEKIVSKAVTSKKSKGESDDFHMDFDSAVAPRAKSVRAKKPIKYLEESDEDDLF

Row | Activity [4] | Activity [5] | Activity [6] | Activity [11] | SMILES | IC50 [1] [nM] | IC50 [2] [nM] | IC50 [3] [nM] | Activity [7] | Activity [8] | Activity [9] | Activity [10] | Activity [12]
1 |  |  |  |  | C=CC(=O)N1C/C(=C\c2ccc([N+](=O)[O-])cc2)C(=O)/C(=C/c2ccc([N+](=O)[O-])cc2)C1 | 150 |  |  |  |  |  |  | 
2 | Active | Active | Active | Active | CCOC(=O)CNC(=O)/C=C\C(=O)N1C/C(=C\c2ccc([N+](=O)[O-])cc2)C(=O)/C(=C/c2ccc([N+](=O)[O-])cc2)C1 | 230 | 840 | 110 | Non-toxic | Non-toxic | Non-toxic | Non-toxic | 
3 | inactive | inactive | Active | Active | CCOC(=O)[C@H](C)NC(=O)/C=C\C(=O)N1C/C(=C\c2ccc([N+](=O)[O-])cc2)C(=O)/C(=C/c2ccc([N+](=O)[O-])cc2)C1 | 240 | 580 | 83 |  |  |  |  | 
4 | Active | Active | Active | Active | CCOC(=O)[C@H](Cc1ccccc1)NC(=O)/C=C\C(=O)N1C/C(=C\c2ccc([N+](=O)[O-])cc2)C(=O)/C(=C/c2ccc([N+](=O)[O-])cc2)C1 | 240 | 200 | 130 |  |  |  |  | 
5 | inactive | inactive | inactive | inactive | CCOC(=O)CNC(=O)/C=C\C(=O)N1C/C(=C\c2ccccc2)C(=O)/C(=C/c2ccccc2)C1 | 1400 | 6100 | 1300 |  |  |  |  | 
6 | inactive | inactive | inactive | inactive | CCOC(=O)[C@H](CC(C)C)NC(=O)/C=C\C(=O)N1C/C(=C\c2ccccc2)C(=O)/C(=C/c2ccccc2)C1 | 1100 | 4700 | 1200 |  |  |  |  | 
7 | Active | Active | Active | Active | CCOC(=O)[C@H](CCSC)NC(=O)/C=C\C(=O)N1C/C(=C\c2ccc([N+](=O)[O-])cc2)C(=O)/C(=C/c2ccc([N+](=O)[O-])cc2)C1 | 250 | 580 | 190 |  |  |  |  | 
8 | inactive | Active | Active | Active | CCOC(=O)[C@H](Cc1ccc(O)cc1)NC(=O)/C=C\C(=O)N1C/C(=C\c2ccc([N+](=O)[O-])cc2)C(=O)/C(=C/c2ccc([N+](=O)[O-])cc2)C1 | 280 | 600 | 170 |  |  |  |  | 
9 | inactive | inactive | inactive | Active | CCOC(=O)[C@H](CC(C)C)NC(=O)/C=C\C(=O)N1C/C(=C\c2ccc([N+](=O)[O-])cc2)C(=O)/C(=C/c2ccc([N+](=O)[O-])cc2)C1 | 210 | 240 | 170 |  |  |  |  | Non-toxic
10 |  |  |  |  | C=CC(=O)N1C/C(=C\c2ccccc2)C(=O)/C(=C/c2ccccc2)C1 | 1420 |  |  |  |  |  |  | 
11 | inactive | inactive | inactive | Active | CCOC(=O)[C@H](Cc1ccc(O)cc1)NC(=O)/C=C\C(=O)N1C/C(=C\c2ccccc2)C(=O)/C(=C/c2ccccc2)C1 | 570 | 4600 | 350 |  |  |  |  | 
12 | inactive | Active | Active | Active | CCOC(=O)[C@@H](NC(=O)/C=C\C(=O)N1C/C(=C\c2ccc([N+](=O)[O-])cc2)C(=O)/C(=C/c2ccc([N+](=O)[O-])cc2)C1)C(C)C | 220 | 440 | 170 |  |  |  |  | 
13 | Active | Active | Active | Active | CCOC(=O)[C@H](Cc1c[nH]c2ccccc12)NC(=O)/C=C\C(=O)N1C/C(=C\c2ccc([N+](=O)[O-])cc2)C(=O)/C(=C/c2ccc([N+](=O)[O-])cc2)C1 | 270 | 620 | 190 |  |  |  |  | 
14 |  |  |  |  | O=C1/C(=C/c2ccc([N+](=O)[O-])cc2)CNC/C1=C\c1ccc([N+](=O)[O-])cc1 | 8280 | 32100 |  |  |  |  |  | 
